This is an account of results in PMC12584752, “Covalent fragment screening to inhibit the E3 ligase activity of bacterial NEL enzymes SspH1 and SspH2” (RSC Chemical Biology, 2025).

In experiment [1] the test system is human cell lysate (HEK293T). Put plainly: IA-DTB chemoproteomics, proteome-wide engagement in lysate. It is filed as binding. The conditions noted are these: engaged peptides log2 CR ≤−1, P-value ≤0.05 vs DMSO. On the procedure:
HEK293T lysate supplemented with recombinant SspH1 (161–700) and SspH2 (166–783) was treated with a dilution series […] of either compound 6 or 7 for four hours at RT. Following compound treatments, we used an iodoacetamide-desthiobiotin (IA-DTB) competitive chemoproteomics workflow to assess cysteine engagement.[52] Comparison of DMSO treated lysate with compound treated lysate enabled identification of peptides where IA-DTB labelling of cysteines was blocked due to fragment engagement (Fig. S5). […] Competition of the SspH2 C580 peptide occurred at lower concentrations compared to the SspH1 C492 peptide, which corroborated our previous kinetics experiments that both compounds label SspH2 faster than SspH1 (Fig. S4).
A pellet of 50 × 10^6 HEK293T cells was resuspended in 5 mL lysis buffer (50 mM HEPES pH 8.0, 150 mM NaCl, 1% IGEPAL, 0.1% SDS, 0.5% Na-deoxycholate, supplemented with protease inhibitor cocktail (Sigma-Aldrich, P8340)). The lysate was sonicated and centrifuged (10 min, 17 000 × g) and the soluble fraction isolated. Protein concentrations were measured using a Rapid BCA Gold Protein Assay Kit (Thermo Scientific, A53226) and diluted to 0.75 mg mL^−1 with lysis buffer. The lysate was then spiked with 0.2 μM of each recombinant SspH1 (aa 161–700) and SspH2 (aa 166–783). […]

A further experiment has as its target SspH1 (161–700) (Salmonella typhimurium, UniProt D0ZVG2). Put plainly: Round 1 intact protein LC-MS covalent fragment labelling screen and dilution series. It is filed as binding. The arrangement: Recombinant IpaH9.8 (21–545) and SspH1 (161–700) were incubated at 0.5 μM; His-tag (N, cleaved yes); made in house; host or cells: E. coli BL21. The conditions noted are these: 24 hours at 4 °C. The protocol: A diverse library of 227 compounds with chloroacetamide warheads, featuring a diversity of molecular weight (162–321 Da) and clog P (−1.4 to 3.4) (Table S1), were screened against Salmonella and Shigella NEL E3 ligases using our intact protein liquid chromatography mass spectrometry (LC-MS) platform as previously described.[39,40] Briefly, recombinant SspH1 (161–700[30]) and IpaH9.8 (21–545[29]) (Fig. 1A and B) were incubated with 50 μM fragments for 24 hours at 4 °C before analysis by LC-MS (Fig. 1C). Raw counts were deconvoluted and the labelling percentage calculated by detection and comparison of protein and protein-fragment molecular weights.
Fig. 1 Intact protein LCMS screening of covalent fragment library against NEL proteins. (A) Cartoon depicting conserved NEL E3 ligase domains; (B) overlaid structures of SspH1 (blue, PDB 9H6W[30]) and IpaH9.8 (green, PDB 6LOL[29]) aligned on NEL domain; (C) workflow of covalent fragment screening using intact LC-MS; (D) fragment labelling percentages for SspH1 and IpaH9.8 with fragments 1–3 highlighted. Recombinant IpaH9.8 (21–545) and SspH1 (161–700) were incubated at 0.5 μM with 50 μM fragments for 24 hours at 4 °C, before fragment labelling was analysed by intact LC-MS; (E) chemical structures of fragments 1–3.
We next analysed the potency of compounds 4–10 against SspH1. The seven compounds were obtained as purified compounds (Table S2) and screened against SspH1 by intact LC-MS (Fig. 3A) with two-fold serial dilution (100–6.25 μM). To confirm which of the two cysteines in the SspH1 161–700 construct were labelled, we repeated the concentration response experiment with a catalytic cysteine mutant of SspH1 (C492K) (Fig. 3B). The complete abrogation of labelling confirmed that all […] compounds labelled the catalytic cysteine of SspH1.
1 μM IpaH9.8 or SspH1 were incubated with […] fragments for 24 hours at 4 °C, in 25 mM HEPES pH 7.5, 50 mM NaCl buffer. Intact protein LC-MS was performed as previously described.[40] The following deconvolution conditions were used for recombinant proteins studied in this work:
Dilution series experiments were performed as for 1st round screening. 1 μM OTUD4, OTUD5 or 0.5 μM HOIL, UbcH5A, SspH2, SspH1 C492K were incubated with 100–6.25 μM compounds for 24 hours at 4 °C, in 25 mM HEPES pH 7.5, 50 mM NaCl buffer. Intact protein LC-MS was performed as previously described.[40] The following deconvolution conditions were used for recombinant proteins studied in this work: […]

Chain of SspH1 (161–700) (D0ZVG2 161-700): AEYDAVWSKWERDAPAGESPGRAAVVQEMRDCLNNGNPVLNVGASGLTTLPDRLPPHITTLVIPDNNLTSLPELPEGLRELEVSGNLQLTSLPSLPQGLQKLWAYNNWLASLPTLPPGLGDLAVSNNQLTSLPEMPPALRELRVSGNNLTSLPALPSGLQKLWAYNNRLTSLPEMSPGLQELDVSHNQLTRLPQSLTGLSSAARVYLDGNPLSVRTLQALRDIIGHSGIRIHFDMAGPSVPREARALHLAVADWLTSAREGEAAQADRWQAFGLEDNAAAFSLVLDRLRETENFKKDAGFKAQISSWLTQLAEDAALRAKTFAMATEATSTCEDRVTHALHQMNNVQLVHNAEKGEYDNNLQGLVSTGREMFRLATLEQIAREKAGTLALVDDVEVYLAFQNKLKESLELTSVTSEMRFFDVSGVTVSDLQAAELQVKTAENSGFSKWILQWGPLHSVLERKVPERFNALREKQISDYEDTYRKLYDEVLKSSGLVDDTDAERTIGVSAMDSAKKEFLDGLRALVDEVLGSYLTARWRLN

In the case of `Cc1cc(-c2nc3ccccc3n2C2CCN(C(=O)CCl)CC2)cc(C)c1O.Cl` [compound 6], the “proteome-wide labelling in human cell lysate” value in experiment [1] is listed as “promiscuous protein labellers”. For the same compound, the entries for the “labelling of WT SspH1” value at SspH1 (161–700) (purified compound at 6.25 μM) and on SspH1 (161–700) (purified compound at 12.5 μM) were above 60% and above 80%, respectively.

Turning to `Cl.O=C(CCl)N1CCC(n2c(-c3ccc(C(F)(F)F)cc3)nc3ccccc32)CC1` [compound 7], in experiment [1], the “proteome-wide labelling in human cell lysate” value was “promiscuous protein labellers”. For the same compound, the “labelling of WT SspH1” value on SspH1 (161–700) (purified compound at 6.25 μM) was above 60%; on SspH1 (161–700) (purified compound at 12.5 μM), above 80%.
